# Data: paper PMC9032987, “Cytotoxic Alkylynols of the Sponge Cribrochalina vasculum: Structure, Synthetic Analogs and SAR Studies” (Marine Drugs, 2022)
# Columns and labels:
# NSCLC U-1810 cells = assay: MTT cytotoxicity assay in NSCLC U-1810 cells; type: cell-based, human; conditions: for IC50: U-1810, 72 h, MTT, 72 h post addition, estimated from cell viability curve; for Selectivity NSCLC cells (U-1810) vs. diploid fibroblasts (WI-38): calculated at IC50 (WI-38 IC50 / U-1810 IC50); for viability at 162 µM: U-1810, at 162 µM
# Procedure: (§1) Cytotoxicity structure-activity relationship analyses of compounds in NSCLC tumor cells and fibroblasts. Stock solutions (10 mg/mL) of the compounds to be tested were made in DMSO and further diluted with cell culture media prior to structure-activity relationship (SAR) screening as earlier described. To assess anti-tumor activity, the large cell lung carcinoma cell line NSCLC U-1810 (kind gift from Uppsala University) and diploid lung fibroblasts WI-38 [30] were used. U-1810 cells were propagated in RPMI-1640 medium (Sigma-Aldrich, St. Louis, […], USA) supplemented with FBS (10% HyClone) and L-glutamine (2 mmol/L, Invitrogen) while WI-38 fibroblasts were cultured in Eagle’s Minimum Essential Medium (Sigma-Aldrich) with 15% FBS and L-glutamine. For SAR assessment the cytotoxic assay 3-(4,5-dimethylthiazol-2-yl)-2,5 diphenyltetrazolium bromide (MTT) was applied. Profiling of U-1810 cells was carried out at 80% confluency (obtained by seeding 5000 cells/well in a 96-well plate for 24 h prior to treatment) and of WI-38 at 100% confluency (obtained by seeding 18,000 cells/well in a 96-well plate for 24 h prior to compound addition), the later to mimic the behavior of fibroblasts in the human body where they are non-dividing. For SAR evaluation, different concentrations of the compounds were added to fresh media while untreated cells were treated with DMSO corresponding to the amount applied when testing the highest concentration of the different compounds. The cytotoxicity of the compounds was assessed at 72 h post addition to cells by adding MTT solution (0.5 mg/mL, Sigma-Aldrich, 4 h at 37 °C) and dissolving the resulting formazan crystals in an SDS-containing solution (10% SDS and 0.01 mol/L HCl). Absorbance was quantified at 595 nm and the compound-induced cytotoxicity was calculated relative to that observed in DMSO-treated cells. The IC50 values were deduced from survival plots drawn in Graph Pad PRISM software vers.6 and for some of the compounds extrapolated as indicated in footnotes to Table 1.
# [1] = system: WI-38 diploid lung fibroblasts; assay: MTT cytotoxicity assay in diploid lung fibroblasts WI-38; type: cell-based, human; conditions: for IC50: Homo sapiens, WI-38, 72 h, MTT, 72 h post addition, confluent cells, estimated from cell viability curve
# Procedure: as §1
# [2] = Homo sapiens, 72 h, read-out: cell viability
Compound,IC50 (NSCLC U-1810 cells; Homo sapiens) [µM],Selectivity NSCLC cells (U-1810) vs. diploid fibroblasts (WI-38) (NSCLC U-1810 cells),IC50 [1] [µM],cytotoxicity to WI-38 fibroblasts (in words) [1],cytotoxic activity in NSCLC U-1810 cells (in words) (NSCLC U-1810 cells),viability at 162 µM (NSCLC U-1810 cells; [2]) [%],"viability at 76 µM (NSCLC U-1810 cells; Homo sapiens, U-1810, at 76 µM, one experiment, read-out: cell viability) [%]","viability at 379 µM (NSCLC U-1810 cells; Homo sapiens, U-1810, at 379 µM, 72 h, read-out: cell viability) [%]",tumor selective cytotoxicity NSCLC vs WI-38 (in words) (NSCLC U-1810 cells)
"C#CC(O)/C=C/CCCCCCCCCCCCCCC (racemic) [rac-18, rac-Icos-(4E)-en-1-yn-3-ol]",1.2,6.9,8.3,–,–,–,–,–,–
"C#CC(O)/C=C/C=C/CCCCCCCCCCCCCCC (racemic) [rac-27, (4E,6E)-docosa-4,6-dien-1-yn-3-ol]",~2.4,–,70,did not affect the viability,–,–,–,–,–
"C#CC(O)CCCCCCCCC (racemic) [rac-31, Dodec-1-yn-3-ol]",15,–,–,–,much lower toxicity,–,–,–,–
"C#CC(O)CCCCCCCCCCCCCCC (racemic) [rac-32, Octadec-1-yn-3-ol]",3,25,75,–,–,–,–,–,–
"C#CC(N)CCCCCCCCCCCCCCC (racemic) [rac-37, Octadec-1-yn-3-amine]",29,1.2,34,–,–,–,–,–,–
"C#CC(C)(O)CCCCCCCCCCCCCCCC (racemic) [rac-41, 3-Methylnonadec-1-yn-3-ol]",> 162,–,–,–,–,~54,–,–,–
"CC#CC(O)CCCCCCCCCCCCCCCCC (racemic) [rac-42, Henicos-2-yn-4-ol]",> 162,–,–,–,–,~90,–,–,–
"C#CC(O)c1cccc(CCCCCCCCCCCCCC)c1 (racemic) [rac-45, 1-(3-tetradecylphenyl)prop-2-yn-1-ol]",~152,–,–,–,–,–,~70,–,–
"C#CC(O)c1ccccc1CCCCCCCCCCCCCC (racemic) [rac-48, 1-(2-tetradecylphenyl)prop-2-yn-1-ol]",~50,–,–,–,–,–,–,–,–
"C#CC(O)c1ccccc1 (racemic) [rac-49, 1-Phenylprop-2-yn-1-ol]",> 379,–,–,–,did not display any anti-tumor effect,–,–,~80,–
"C#C[C@H](O)/C=C/CCCCCCCCCCCCC(C)C [Compound 1, (3R)-18-Methylnonadec-(4E)-en-1-yn-3-ol]",1,12,12,–,equally active,–,–,–,selectivity at lower doses
"C#CC(=O)/C=C/CCCCCCCCC(C)CCCCCC (stereo not drawn) [Compound 6, 14-Methylicos-(4E)-en-1-yn-3-one]",65,1.1,73,–,not active,–,–,–,–
"C#C[C@H](O)CCCCCCCCCCC(C)CCCCCC (stereo partly drawn) [Compound 7, (3R)-14-Methylicos-1-yn-3-ol]",3,–,> 163,–,equally active,–,–,–,clear tumor selective activity
C#CC(O)C=CCCCCCCCC1CC1CCCCCC (stereo not drawn) [Compound 8],1,10,10,–,equally active,–,–,–,selectivity at lower doses
"C#CC(=O)/C=C/CCCCCCCCC/C=C\CCCCCC [Compound 10, Docos-(4E,15Z)-dien-1-yn-3-one]",~80,~0.4,30,–,not active,–,–,–,–
"C#C[C@H](O)/C=C/CCCCCCCCCCCCCC(C)C [Compound 19, (3R)-19-Methylicos-(4E)-en-1-yn-3-ol]",2,6.5,13,–,equally active,–,–,–,–
"C#C[C@H](O)/C=C/CCCCCCCCCCCCCCCC [Compound 20, (3R)-Henicos-(4E)-en-1-yn-3-ol]",1.4,10,14,–,equally active,–,–,–,–
